This is an account of results in patent US20260174692A1, “AEROSOL COMPOSITION” (UPyTher B.V., priority 2023, published 2026).

Series [1] can be described thus: In vitro release of TLR-agonists from hydrogel. The series is classed as physicochemical. The note with it: 6 and 10 wt. % hydrogel formulations; ammonium carbonate buffer. Here is the method:
The TLR-agonist resiquimod (synonym R848) was loaded from a stock solution (50 mM in DMSO) to 1.27 mM in the hydrogel. The TLR-agonist telratolimod (synonym MEDI9197) was loaded from a stock solution (10 mM in DMSO) to 0.5 mM in the hydrogel.
The drug loaded solution (100 μL) was transferred to a Millicell insert, which was placed in a 24-wells plate filled with PBS pH 7.4 (700 μL). At set time points the PBS was refreshed and the removed PBS was analyzed for R848 content UV absorbance at 320 nm. For MEDI9197, PBS was substituted for a volatile ammonium carbonate buffer and a HPLC-MS method was used. Release experiments were performed with n=3.

For series [2] the following is noted: cited from earlier work.
Series [3] can be described thus: In vitro release of ipilimumab from hydrogel. The conditions noted are these: 10 wt % UPy-PEG10k hydrogel; PBS pH 7.4. The class given is physicochemical. Here is the method: The monoclonal antibody ipilimumab was loaded from a stock solution ([…] in PBS) to 3 μg/μl in the hydrogel. The drug loaded solution (50 μL) was transferred to 96-wells filter plate filled with PBS pH 7.4 (250 μL). At set time points the PBS was refreshed and the removed PBS was analyzed for antibody content with a Fortebio Octet interferometer.

As to `CCCCCCCCCCCCCCCCCC(=O)NCCCCOn1c(CCCC)nc2c(N)nc3ccccc3c21` [MEDI9197, telratolimod], the “release rate from hydrogel” value in series [1] is reported as “released slower than MMC”.

On to `O=C1[O][Pt]2([NH][C@@H]3CCCC[C@H]3[NH]2)[O]C1=O` [oxaliplatin], for which the “Cmax, ePIPAC” value in series [2] (administered by ePIPAC) is 2670 to 3280 ng/mL. Besides, in series [2] (after systemic chemotherapy), the “AUCmax, systemic” value is 51400 to 118000 ng·h/mL and the “Cmax, systemic” value was 1610 to 1920 ng/mL.

Consider “ipilimumab: monoclonal antibody, checkpoint inhibitor (CTLA-4), loaded to 3 μg/μl in the hydrogel”, for which the “duration of antibody release” value in series [3] is recorded as “released for multiple weeks”.
